Measured values taken from PMC4833520 (Bioorganic & medicinal chemistry, 2016).

How the values were obtained:
σ1 receptor = σ1 receptor (Cavia porcellus, UniProt Q60492); assay: PDSP radioligand binding, σ1 receptor
[1] = biological target: human dopamine D1 receptor (Homo sapiens, UniProt P21728); assay: PDSP radioligand binding, dopamine D1 receptor; conditions: ratio of Ki values
Chain of human dopamine D1 receptor (P21728 whole entry): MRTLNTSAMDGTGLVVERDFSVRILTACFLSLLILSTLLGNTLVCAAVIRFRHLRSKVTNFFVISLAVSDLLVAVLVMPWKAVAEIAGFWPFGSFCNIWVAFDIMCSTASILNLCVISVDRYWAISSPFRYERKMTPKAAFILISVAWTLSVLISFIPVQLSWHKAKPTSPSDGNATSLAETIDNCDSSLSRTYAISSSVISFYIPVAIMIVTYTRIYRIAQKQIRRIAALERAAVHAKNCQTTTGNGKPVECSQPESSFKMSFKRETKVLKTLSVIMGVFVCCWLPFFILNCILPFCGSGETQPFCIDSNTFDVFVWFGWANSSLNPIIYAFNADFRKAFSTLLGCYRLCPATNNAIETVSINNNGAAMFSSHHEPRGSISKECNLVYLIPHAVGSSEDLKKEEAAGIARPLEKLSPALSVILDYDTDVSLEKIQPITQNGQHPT

Chain of σ1 receptor (Q60492 whole entry): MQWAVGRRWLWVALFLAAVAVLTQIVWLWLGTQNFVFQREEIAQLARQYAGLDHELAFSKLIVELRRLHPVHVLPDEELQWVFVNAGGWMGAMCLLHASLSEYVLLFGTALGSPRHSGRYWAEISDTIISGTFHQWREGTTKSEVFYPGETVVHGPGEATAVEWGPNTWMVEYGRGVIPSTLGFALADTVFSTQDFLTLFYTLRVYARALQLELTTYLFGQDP

Row | selectivity for σ1 versus σ2 receptors (σ1 receptor) | Selectivity D3/D1 [1] | Compound
1 | approximately 3 fold | – | CCCCCCOc1ccc2c(c1OC)CN1CCc3cc(OC)c(O)cc3C1C2 (centres unmarked) [Compound 15, 10-(Hexyloxy)-3,9-dimethoxy-5,8,13,13a-tetrahydro-6H-isoquinolino[3,2-a]isoquinolin-2-ol]
2 | – | 16 | COc1cc2c(cc1O)C1Cc3ccc(OCCCO)c(OC)c3CN1CC2 (centres unmarked) [Compound 16, 10-(3-Hydroxypropoxy)-3,9-dimethoxy-5,8,13,13a-tetrahydro-6H-isoquinolino[3,2-a]isoquinolin-2-ol]
